Test results: BindingDB's records for doi:10.1021/jm00075a032 (University of Bologna, 1993)

What was measured:
[1] = biological target: T1, Muscarinic acetylcholine receptor M2 (Rattus norvegicus, UniProt P10980)
T1 sequence (P10980 whole entry): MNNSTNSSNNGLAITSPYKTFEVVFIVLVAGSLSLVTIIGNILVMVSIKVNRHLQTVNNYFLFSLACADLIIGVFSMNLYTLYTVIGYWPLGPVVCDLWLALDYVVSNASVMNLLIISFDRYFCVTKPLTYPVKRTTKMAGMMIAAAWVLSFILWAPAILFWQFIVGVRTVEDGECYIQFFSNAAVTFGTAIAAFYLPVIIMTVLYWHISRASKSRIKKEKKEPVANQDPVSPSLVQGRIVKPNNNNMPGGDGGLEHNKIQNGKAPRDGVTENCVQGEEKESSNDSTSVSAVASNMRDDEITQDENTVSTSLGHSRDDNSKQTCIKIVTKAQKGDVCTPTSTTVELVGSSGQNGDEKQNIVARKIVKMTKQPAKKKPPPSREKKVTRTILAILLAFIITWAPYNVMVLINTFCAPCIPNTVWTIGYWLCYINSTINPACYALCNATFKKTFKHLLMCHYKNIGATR

[2] = biological target: T2, Muscarinic acetylcholine receptor M1 (Rattus norvegicus, UniProt P08482)
T2 sequence (P08482 whole entry): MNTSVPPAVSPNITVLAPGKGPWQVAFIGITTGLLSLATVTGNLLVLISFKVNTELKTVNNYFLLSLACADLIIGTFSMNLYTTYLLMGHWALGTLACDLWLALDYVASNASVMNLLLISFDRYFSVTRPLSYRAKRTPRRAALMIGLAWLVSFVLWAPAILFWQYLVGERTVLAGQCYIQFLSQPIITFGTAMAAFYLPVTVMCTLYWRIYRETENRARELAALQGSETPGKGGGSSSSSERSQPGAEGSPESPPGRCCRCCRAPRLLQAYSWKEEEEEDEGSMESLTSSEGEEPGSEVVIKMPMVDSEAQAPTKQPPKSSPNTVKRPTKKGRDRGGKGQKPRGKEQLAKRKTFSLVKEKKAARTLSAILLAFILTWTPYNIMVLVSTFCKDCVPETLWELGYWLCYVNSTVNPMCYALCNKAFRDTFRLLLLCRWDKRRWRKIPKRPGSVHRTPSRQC

[3] = biological target: T3, Muscarinic acetylcholine receptor M4 (Rattus norvegicus, UniProt P08485)
T3 sequence (P08485 whole entry): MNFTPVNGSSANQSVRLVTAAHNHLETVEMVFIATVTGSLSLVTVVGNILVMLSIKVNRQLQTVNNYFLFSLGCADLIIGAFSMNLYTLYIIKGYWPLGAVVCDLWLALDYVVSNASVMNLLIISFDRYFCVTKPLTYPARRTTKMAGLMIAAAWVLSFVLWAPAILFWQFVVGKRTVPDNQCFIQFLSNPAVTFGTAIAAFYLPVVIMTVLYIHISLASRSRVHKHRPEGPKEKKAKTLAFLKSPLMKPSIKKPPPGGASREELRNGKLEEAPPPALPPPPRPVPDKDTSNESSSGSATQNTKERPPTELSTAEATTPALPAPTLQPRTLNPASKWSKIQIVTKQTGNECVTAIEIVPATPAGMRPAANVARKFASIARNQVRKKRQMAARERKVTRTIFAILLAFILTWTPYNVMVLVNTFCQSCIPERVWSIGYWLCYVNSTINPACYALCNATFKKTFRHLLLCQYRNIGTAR

[4] = biological target: Muscarinic acetylcholine receptor M3 (Rattus norvegicus, UniProt P08483)
Sequence of Muscarinic acetylcholine receptor M3 (P08483 whole entry): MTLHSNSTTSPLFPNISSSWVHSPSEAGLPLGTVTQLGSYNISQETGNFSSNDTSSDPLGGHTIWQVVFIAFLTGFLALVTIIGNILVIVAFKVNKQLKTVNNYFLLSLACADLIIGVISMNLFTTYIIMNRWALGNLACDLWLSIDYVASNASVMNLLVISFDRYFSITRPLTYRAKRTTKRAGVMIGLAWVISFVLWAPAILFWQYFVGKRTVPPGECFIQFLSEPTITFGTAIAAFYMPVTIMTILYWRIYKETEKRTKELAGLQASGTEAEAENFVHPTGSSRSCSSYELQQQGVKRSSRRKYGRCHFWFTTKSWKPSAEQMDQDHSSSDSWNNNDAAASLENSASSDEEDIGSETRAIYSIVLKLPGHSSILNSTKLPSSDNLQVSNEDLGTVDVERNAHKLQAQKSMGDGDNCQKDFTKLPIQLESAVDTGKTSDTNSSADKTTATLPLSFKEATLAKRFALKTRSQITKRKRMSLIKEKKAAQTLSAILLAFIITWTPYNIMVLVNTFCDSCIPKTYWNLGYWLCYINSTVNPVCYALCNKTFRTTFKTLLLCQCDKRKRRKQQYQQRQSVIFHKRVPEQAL

Compound: CN(CCCCCCNCCCCCCCCNCCCCCCN(CN1c2ccccc2C(=O)Nc2cccnc21)CN1c2ccccc2C(=O)Nc2cccnc21)CN1c2ccccc2C(=O)Nc2cccnc21 [methoctramine analog 5]
- Ki [1]: 0.29 nM
- Ki [2]: 23.4 nM
- Ki [3]: 11.7 nM
- Ki [4]: 646 nM
